# Laboratory results as given in PMC11045757, “Group 3 medulloblastoma transcriptional networks collapse under domain specific EP300/CBP inhibition” (Nature Communications, 2024).
# Several values for one entry are separate records, joined by “and”; a condition that tells them apart may be missing. Identical values can stand only once. Like-named read-outs stand apart in the source and are kept apart here.
# How the values were obtained:
# Format in all cases: binding
# BRD4-BD1 (BRD4-1) = target: T1, BRD4-BD1 (BRD4-1) (Homo sapiens, UniProt O60885); assay: Differential scanning fluorimetry (DSF) thermal shift; conditions: BRD4-BD1
# T1 construct: BRD4-BD1 (residues 44-168); 6xHis (cleaved yes); host or cells: E. coli BL21 (DE3) RIL
# Procedure: (§1) At OD600 of 0.6, the culture was cooled down to 18 °C and induced with 0.1 mM IPTG. After 18 h growth, the culture was harvested by centrifugation at 6000 × g for 25 min and stored at -80 °C. Harvested cell pellets were re-suspended in 50 mM Na/K phosphate buffer (pH 7.4) containing 100 mM NaCl, 40 mM imidazole, 0.01% w/v lysozyme and 0.01% v/v Triton X-100 at 4 °C for 1 h, subjected to sonication and the lysate was clarified by centrifugation (30,000 × g for 45 min at 4 °C). Proteins were purified by FPLC at 4 °C using columns and chromatography materials from GE Healthcare. […] Proteins were purified to homogeneity by size exclusion chromatography using Superdex 75 equilibrated with elution buffer (50 mM HEPES pH 7.5, 100 mM NaCl, 2 mM DTT). All BRDs eluted as monomeric protein and were of crystallization grade quality (>95% purity as judged by SDS-PAGE). Pool fractions were combined, concentrated to 10–12 mg/ml, and aliquots were flash-frozen in liquid N2 and stored at −80 °C.
# (§2) DSF experiments were performed with an Applied Biosystem StepOnePlus real-time PCR system (Thermo Fisher Scientific) using 96-well format plates, assayed in quadruplicate. For thermal shift determination, 5 μM protein was mixed with 100 μM compound in 50 mM HEPES, pH 7.5, 150 mM NaCl, 2 mM DTT, 2% DMSO, 5X SYPRO Orange (Thermo Fisher Scientific) in 20 μL reaction volumes. Reaction mixtures were heated from 25 to 95 °C at 1 °C/min with fluorescence readings every 0.5 °C at 610 nm. The observed thermal shift (ΔTm) was recorded as the difference between the Tm of sample and DMSO reference wells.
# EP300 bromodomain = target: T2, EP300 bromodomain (Homo sapiens, UniProt Q09472); assay: as above
# T2 construct: 6xHis (cleaved yes); host or cells: E. coli BL21 (DE3) RIL
# T2 sequence (Q09472 1048-1161): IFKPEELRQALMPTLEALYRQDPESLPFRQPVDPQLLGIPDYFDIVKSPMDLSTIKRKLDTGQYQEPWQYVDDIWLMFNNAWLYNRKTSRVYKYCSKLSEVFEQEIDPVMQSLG
# Procedure: as §1, §2
# [1] = target: GFP-tagged CBP bromodomain (Homo sapiens, UniProt Q92793); assay: Microscale thermophoresis (MST); conditions: for Response (Dose Response Curve): MST raw response; for Kd: MST; for Bound (Fit Results): fitted MST response of bound state; for Bound (Fit Results) / Unbound (Fit Results): target clGFP-CBPBRD 5e-8; for Unbound (Fit Results): fitted MST response of unbound state
# Procedure: MST experiments were performed in a Monolith NT.115 Pico instrument (NanoTemper Technologies) following published procedures. […] MST traces were recorded using standard parameters: 5 s MST power off, 30 s MST power on and 5 s MST power off. Measurements were taken at -1-0 s (cold region) and 10 s (hot region) and data were analyzed using the NTAnalysis software.
# CBP bromodomain = target: T3, CBP bromodomain (Homo sapiens, UniProt Q92793); assay: Differential scanning fluorimetry (DSF) thermal shift; conditions: for ΔTm (°C) CBP: DSF
# T3 construct: CBP (residues 1081-1197); 6xHis (cleaved yes); host or cells: E. coli BL21 (DE3) RIL
# Procedure: as §1, with “After” for “At OD600 of 0.6, the culture was cooled down to 18 °C and induced with 0.1 mM IPTG. After”, “All BRDs eluted as monomeric protein and were of crystallization grade quality (>95% purity as judged by SDS-PAGE).” left out
# DSF experiments were performed with an Applied Biosystem StepOnePlus real-time PCR system (Thermo Fisher Scientific) using 96-well format plates, assayed in quadruplicate. For thermal shift determination, 5 μM protein was mixed with 100 μM compound in 50 mM HEPES, pH 7.5, 150 mM NaCl, 2 mM DTT, 2% DMSO, 5X SYPRO Orange (Thermo Fisher Scientific) in 20 μL reaction volumes.
# [2] = Dose 1.52588e-10, single replicate run
# [3] = Dose 3.05176e-10, single replicate run
# [4] = Dose 6.10352e-10, single replicate run
# [5] = Dose 1.2207e-9, single replicate run
# [6] = Dose 2.44141e-9, single replicate run
# [7] = Dose 4.88281e-9, single replicate run
# [8] = Dose 9.76563e-9, single replicate run
# [9] = Dose 1.95313e-8, single replicate run
# [10] = Dose 3.90625e-8, single replicate run
# [11] = Dose 7.8125e-8, single replicate run
# [12] = Dose 1.5625e-7, single replicate run
# [13] = Dose 3.125e-7, single replicate run
# [14] = Dose 6.25e-7, single replicate run
# [15] = Dose 1.25e-6, single replicate run
# [16] = Dose 2.5e-6, single replicate run
# [17] = Dose 5e-6, single replicate run
# [18] = single replicate run, target clGFP-CBPBRD, TargetConcentration 5e-8, MST-Power Medium, unit inferred, read-out: Kd (Fit Results, Fit Model: Kd)
# Sequence of GFP-tagged CBP bromodomain (Q92793 1085-1192 limits assumed): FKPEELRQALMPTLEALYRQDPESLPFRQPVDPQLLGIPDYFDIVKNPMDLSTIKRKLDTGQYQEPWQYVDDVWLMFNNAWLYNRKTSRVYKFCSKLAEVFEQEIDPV
# T3 sequence (Q92793 1081-1197): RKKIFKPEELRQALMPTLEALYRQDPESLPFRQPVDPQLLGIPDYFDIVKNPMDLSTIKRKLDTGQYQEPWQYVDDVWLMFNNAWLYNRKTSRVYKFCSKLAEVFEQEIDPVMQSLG
"Response (Dose Response Curve) [1, 2]","Response (Dose Response Curve) [1, 3]","Response (Dose Response Curve) [1, 4]","Response (Dose Response Curve) [1, 5]","Response (Dose Response Curve) [1, 6]","Response (Dose Response Curve) [1, 7]","Response (Dose Response Curve) [1, 8]","Response (Dose Response Curve) [1, 9]","Response (Dose Response Curve) [1, 10]","Response (Dose Response Curve) [1, 11]","Response (Dose Response Curve) [1, 12]","Response (Dose Response Curve) [1, 13]","Response (Dose Response Curve) [1, 14]","Response (Dose Response Curve) [1, 15]","Response (Dose Response Curve) [1, 16]","Response (Dose Response Curve) [1, 17]","Kd [1, 18]",Bound (Fit Results) ([1]; single replicate run),Unbound (Fit Results) ([1]; single replicate run),SMILES,further results
,,,,,,,,,,,,,,,,,,,COc1ccc(CCc2nc3cc(-c4c(C)noc4C)ccc3n2C[C@H](C)N2CCOCC2)cc1Cl [SGC-CBP30],"ΔTm (°C) (BRD4-BD1 (BRD4-1); DSF thermal shift vs DMSO, Fig 2B): 0 °C; ΔTm (°C) (EP300 bromodomain; DSF thermal shift vs DMSO, EP300 bromodomain, Fig 2B): 7.9 °C"
915.174,914.49,915.362,915.368,914.907,914.429,913.858,914.04,913.557,913.257,911.399,910.65,909.717,910.942,910.368,911.15,44.3 nM,910.375,914.969,COC1CCC(n2c(C3CCCC(=O)N3c3ccccc3)nc3cc(-c4c(C)noc4C)ccc32)CC1 (stereo not shown) [iCBP5-5],
893.145 and 893.496 and 892.759,891.612 and 893.465 and 892.592,892.684 and 894.151 and 892.213,892.641 and 893.04 and 893.233,892.502 and 892.231 and 892.986,891.878 and 891.94 and 891.268,891.027 and 892.27 and 891.532,892.42 and 891.618 and 892.241,890.537 and 890.96 and 891.609,889.07 and 889.984 and 889.085,888.52 and 887.496 and 888.851,887.2 and 888.101 and 888.455,887.415 and 887.704 and 886.214,888.032 and 886.878 and 886.638,887.475 and 888.923 and 888.41,888.712 and 888.775 and 886.626,20 nM and 15.2 nM and 54.7 nM,887.696 and 887.896 and 886.89,892.536 and 893.196 and 892.626,COC1CCC(n2c(C3CCCC(=O)N3c3cccc(C(C)(C)C)c3)nc3cc(-c4c(C)noc4C)ccc32)CC1 (stereo not shown) [iCBP-6],"ΔTm (°C) CBP (CBP bromodomain; Figure 3A, CBP bromodomain): 15.3 °C; ΔTm (°C) CBP (CBP bromodomain; Figure 3B, CBP): 15.3 °C; DSF ΔTm (°C) (CBP bromodomain; Figure 3C, DSF (values equal CBP column)): 15.3 °C; ΔTm (°C) BRD4-BD1 (BRD4-BD1 (BRD4-1); Figure 3A, DSF): 3.2 °C; ΔTm (°C) EP300 (EP300 bromodomain; Figure 3B, DSF, EP300): 14.3 °C; Kd ([1]; Figure 3C, read-out: MST Kd): 30 nM"
